# Test results published in US20120220567A1, “BENZO-FUSED OXAZEPINE COMPOUNDS AS STEAROYL-COENZYME A DELTA-9 DESATURASE INHIBITORS” (priority 2009, published 2012).
# Molecular target: T1, SCD-1 (Homo sapiens, UniProt O00767)
# T1 construct: 50 μg of protein from a HepG2 cell P2 pellet; endogenous in cells; host or cells: HepG2 cells (P2 pellet)
# T1 sequence (O00767 1-359): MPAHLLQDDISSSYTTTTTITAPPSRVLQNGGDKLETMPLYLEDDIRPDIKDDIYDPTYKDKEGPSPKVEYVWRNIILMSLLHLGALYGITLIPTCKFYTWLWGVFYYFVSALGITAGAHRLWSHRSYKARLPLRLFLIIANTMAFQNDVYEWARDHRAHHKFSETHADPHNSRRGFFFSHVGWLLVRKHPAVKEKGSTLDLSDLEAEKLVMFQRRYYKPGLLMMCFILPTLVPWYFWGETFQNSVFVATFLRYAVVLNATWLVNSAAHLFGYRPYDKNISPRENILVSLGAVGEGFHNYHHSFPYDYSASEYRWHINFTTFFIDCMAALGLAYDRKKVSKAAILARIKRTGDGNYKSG
# Test: Stearoyl-CoA desaturase assay (HepG2 cell P2 pellet)
# Type: biochemical
# Conditions: Table 1, compounds of formula (Ia); protein from HepG2 cell P2 pellet, 20 μM stearoyl-CoA, 15 min at 25° C.; read-out: Ave IC50
# Experimental: Stearoyl-CoA desaturase assays were performed in according to Talamo and Bloch. […] Assays were run in triplicate in 100-μl volumes of 100 mM TrisHCl, pH 7.3, containing 20 μM stearoyl-CoA, 2 mM β-NADH, and 50 μg of protein from a HepG2 cell P2 pellet. Since SCD-1 is the only isoform of SCD expressed in these cells, the assay is specific for SCD-1 with these cells as the source of enzyme. Reaction mixtures were incubated fifteen minutes at 25° C. and reactions were then stopped with a volume of trichloroacetic acid giving a final concentration of 0.2%. After five minutes, a 90-μl volume was transferred to a Millipore Multiscreen HTS 96-well filtration plate (MSHVN4B50) containing 125 μl of 10% charcoal in each well, to which vacuum had been previously applied. Plates were shaken fifteen minutes and then filtered into a collection plate. Fifty-μI volumes of filtrate were transferred to another plate containing 150 μl of MicroScint 40 for counting on a TopCount scintillation counter.
row,IC50,Compound
1,0.05 to 0.499 µM,CC(C)(C)c1ccc(CN2CCC3(CCN(C(=O)CNC(=O)c4cccs4)CC3)Oc3ccccc32)cc1 [Compound 44]
2,0.5 to 10 µM,CC(=O)NCC(=O)N1CCC2(CC1)CCN(Cc1cccc(C(F)(F)F)c1)c1cccc(F)c1O2 [Compound 45]
3,> 10 µM,CC(=O)NCC(=O)N1CCC2(CC1)CCN(Cc1ccc(OC(C)(C)C)cc1)c1ccccc1O2 [Compound 18]
4,0.5 to 10 µM,CCc1ccc(CN2CCC3(CCN(C(=O)CNC(=O)Cc4cn(C)cn4)CC3)Oc3ccccc32)cc1 [Compound 11]
5,0.5 to 10 µM,COc1ccc(CN2CCC3(CCN(C(=O)CNC(C)=O)CC3)Oc3ccccc32)cc1 [Compound 16]
6,0.05 to 0.499 µM,CCc1ccc(CN2CCC3(CCN(C(=O)CNC(=O)CC4CC4)CC3)Oc3ccccc32)cc1 [Compound 7]
7,0.5 to 10 µM,CC(=O)NCC(=O)N1CCC2(CC1)CCN(Cc1ccc(C)cc1)c1ccccc1O2 [Compound 35]

# Same assay, conditions: Table 2, compounds of formula (Ib); protein from HepG2 cell P2 pellet, 20 μM stearoyl-CoA, 15 min at 25° C.; read-out: Ave IC50
row,IC50,Compound
1,0.5 to 10 µM,CC(C)(C)c1ccc(CN2CCC3(CCN(c4ncc(C(=O)NCCN5CCCC5=O)s4)CC3)Oc3c(F)cccc32)cc1 [Compound 81]
2,0.05 to 0.499 µM,CC(C)(C)c1ccc(CN2CCC3(CCN(c4ncc(C(=O)NC[C@@H](O)CO)s4)CC3)Oc3c(F)cccc32)cc1 [Compound 95]
3,0.05 to 0.499 µM,CC(C)(C)c1ccc(CN2CCC3(CCN(c4ncc(-c5cncnc5)s4)CC3)Oc3ccccc32)cc1 [Compound 135]
4,0.0005 to 0.049 µM,CC(C)(C)c1ccc(CN2CCC3(CCN(c4ncc(C(=O)O)s4)CC3)Oc3c(F)cccc32)cc1 [Compound 74]
5,0.05 to 0.499 µM,CC(C)(C)c1ccc(CN2CCC3(CCN(c4ncc(C(=O)NC5CC5)s4)CC3)Oc3ccccc32)cc1 [Compound 65]
6,> 10 µM,CC(C)(C)c1ccc(CN2CCC3(CCN(c4ncc(C(=O)NCCn5ccnc5)s4)CC3)Oc3c(F)cccc32)cc1 [Compound 119]
7,0.0005 to 0.049 µM,CC(C)(C)OC(=O)CNC(=O)c1cnc(N2CCC3(CC2)CCN(Cc2ccc(C(C)(C)C)cc2)c2cccc(F)c2O3)s1 [Compound 115]
8,0.5 to 10 µM,CC(C)CCNC(=O)c1cnc(N2CCC3(CC2)CCN(Cc2ccc(C(C)(C)C)cc2)c2cccc(F)c2O3)s1 [Compound 109]
9,0.5 to 10 µM,Cc1cc(CNC(=O)c2cnc(N3CCC4(CC3)CCN(Cc3ccc(C(C)(C)C)cc3)c3cccc(F)c3O4)s2)no1 [Compound 97]
10,0.0005 to 0.049 µM,CC(C)(C)c1ccc(CN2CCC3(CCN(c4ncc(C(=O)NCCC(=O)O)s4)CC3)Oc3ccccc32)cc1 [Compound 130]
11,0.05 to 0.499 µM,C[S+]([O-])CCNC(=O)c1cnc(N2CCC3(CC2)CCN(Cc2ccc(C(C)(C)C)cc2)c2cccc(F)c2O3)s1 (stereo not shown) [Compound 93]
12,0.0005 to 0.049 µM,C[C@H](O)CNC(=O)c1cnc(N2CCC3(CC2)CCN(Cc2ccc(C(C)(C)C)cc2)c2cccc(F)c2O3)s1 [Compound 110]

# Same assay, conditions: Table 3, compounds of formula (Ic); protein from HepG2 cell P2 pellet, 20 μM stearoyl-CoA, 15 min at 25° C.; read-out: Ave IC50
row,IC50,Compound
1,0.0005 to 0.049 µM,O=C(NCCC1CC1)c1ccc(N2CCC3(CC2)CCN(Cc2ccc(Oc4ccccc4)cc2)c2ccccc2O3)nn1 [Compound 183]
2,0.0005 to 0.049 µM,O=C(NCCc1ccncc1)c1ccc(N2CCC3(CC2)CCN(Cc2cccc(C(F)(F)F)c2)c2cccc(F)c2O3)nn1 [Compound 174]
3,0.0005 to 0.049 µM,NC(=O)c1ccc(N2CCC3(CC2)CCN(Cc2ccc(Oc4ccccc4)cc2)c2ccccc2O3)nn1 [Compound 184]
4,0.5 to 10 µM,CC(C)(C)CCNC(=O)c1ccc(N2CCC3(CC2)CCN(Cc2cccc(C(F)(F)F)c2)c2ccccc2O3)nn1 [Compound 159]
5,0.0005 to 0.049 µM,CC(C)Oc1ccc(CN2CCC3(CCN(c4ccc(C(=O)NCCC5CC5)nn4)CC3)Oc3ccccc32)cc1 [Compound 178]
6,0.5 to 10 µM,O=C(NCCC1CC1)c1ccc(N2CCC3(CC2)CCN(Cc2cccc(C(F)(F)F)c2)c2ccccc2O3)cc1 [Compound 171]
7,0.0005 to 0.049 µM,CC(C)Oc1ccc(CN2CCC3(CCN(c4ccc(C(N)=O)nn4)CC3)Oc3ccccc32)cc1 [Compound 179]
8,0.05 to 0.499 µM,CCc1ccc(CN2CCC3(CCN(c4ccc(C(=O)NCCC5CC5)cn4)CC3)Oc3ccccc32)cc1 [Compound 177]
9,0.0005 to 0.049 µM,CC(C)c1ccc(CN2CCC3(CCN(c4ccc(C(N)=O)nn4)CC3)Oc3ccccc32)cc1 [Compound 182]
